In patent publication US10710980B2, “Aminopyridine derivatives and their use as selective ALK-2 inhibitors” (priority 2016, dated 2020) one finds IC50 data, which are given here for 20 compounds.

One experiment addresses ALK1 (aa166-493) (Homo sapiens (Human), UniProt P37023). The experiment is described as follows: Caliper biochemical peptide phosphorylation assay, ALK1. The settings on record: 15 μm ATP, 60 min at 30° C.; read-out: ALK1 EPK (IC50).
The target of experiment [1] is T1, wild-type ALK2 (aa172-499) (Homo sapiens (Human), UniProt Q04771). The experiment is described as follows: ADPGlo biochemical autophosphorylation assay, ALK2. Conditions: 15 μm ATP, 60 min at 32° C. In general terms: ADP-Glo turns the ADP formed in a reaction into a luminescent signal.
T1 sequence (Q04771 172-499): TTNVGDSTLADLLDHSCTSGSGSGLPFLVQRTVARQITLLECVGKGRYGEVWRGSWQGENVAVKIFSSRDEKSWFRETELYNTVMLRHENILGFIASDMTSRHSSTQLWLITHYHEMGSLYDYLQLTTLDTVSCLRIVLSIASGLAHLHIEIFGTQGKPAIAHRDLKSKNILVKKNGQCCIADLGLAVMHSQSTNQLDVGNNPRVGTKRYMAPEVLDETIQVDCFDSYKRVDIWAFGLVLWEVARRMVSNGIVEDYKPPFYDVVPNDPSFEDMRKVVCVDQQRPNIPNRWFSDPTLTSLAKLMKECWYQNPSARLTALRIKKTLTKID
The target of a further experiment is ALK6 (aa168-495) (Homo sapiens (Human), UniProt O00238). The experiment is described as follows: Caliper biochemical peptide phosphorylation assay, ALK6. The settings on record: 15 μm ATP, 60 min at 30° C.; read-out: ALK6 EPK (IC50).
Chain of ALK6 (aa168-495) (O00238 168-495): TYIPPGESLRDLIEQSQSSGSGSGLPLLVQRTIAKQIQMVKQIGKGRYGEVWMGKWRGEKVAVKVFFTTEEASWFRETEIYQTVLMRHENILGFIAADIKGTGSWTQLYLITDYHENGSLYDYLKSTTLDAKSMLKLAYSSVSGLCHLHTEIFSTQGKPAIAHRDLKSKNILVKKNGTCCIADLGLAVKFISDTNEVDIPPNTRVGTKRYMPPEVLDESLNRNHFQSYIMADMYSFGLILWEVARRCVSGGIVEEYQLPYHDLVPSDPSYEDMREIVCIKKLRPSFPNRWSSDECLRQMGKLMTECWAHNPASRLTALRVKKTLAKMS
For experiment [2], the system named is BMP response element (BRE) luciferase reporter in HuH7 cells, BMP6 stimulated. The experiment is described as follows: BMP signaling reporter gene assay. The class given is cell-based. Conditions: Homo sapiens, Huh-7; HuH7 BRE-luciferase, BMP6 100 ng/ml, 5 hours; read-out: MSD BMP RGA IC50. (In general: Reporter assays use an easily measured gene product as a stand-in for the process of interest.)

The next experiment has as its target ALK5 (aa162-503) (Homo sapiens (Human), UniProt P36897). The experiment is described as follows: Caliper biochemical peptide phosphorylation assay, ALK5. Conditions: 15 μm ATP, 60 min at 30° C.; read-out: ALK5 EPK (IC50).
A further experiment addresses ALK3 (aa198-525) (Homo sapiens (Human), UniProt P36894). The experiment is described as follows: ADPGlo biochemical autophosphorylation assay, ALK3. Conditions: 15 μm ATP, 60 min at 32° C.
Experiment [3] has as its target T1, wild-type ALK2 (aa172-499). The experiment is described as follows: Caliper biochemical peptide phosphorylation assay, ALK2. Conditions: 15 μm ATP, 60 min at 30° C.; read-out: ALK2 EPK (IC50).

Chain of ALK3 (aa198-525) (P36894 198-525): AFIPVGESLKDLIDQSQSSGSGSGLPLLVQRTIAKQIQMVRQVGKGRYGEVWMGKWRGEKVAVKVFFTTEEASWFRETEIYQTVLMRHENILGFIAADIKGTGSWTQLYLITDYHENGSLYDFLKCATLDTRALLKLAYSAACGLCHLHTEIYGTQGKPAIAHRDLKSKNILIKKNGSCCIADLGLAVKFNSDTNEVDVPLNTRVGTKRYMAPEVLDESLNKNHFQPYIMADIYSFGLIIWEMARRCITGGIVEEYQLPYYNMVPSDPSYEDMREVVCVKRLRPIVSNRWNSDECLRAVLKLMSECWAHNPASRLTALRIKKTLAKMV
Chain of ALK1 (aa166-493) (P37023 166-493): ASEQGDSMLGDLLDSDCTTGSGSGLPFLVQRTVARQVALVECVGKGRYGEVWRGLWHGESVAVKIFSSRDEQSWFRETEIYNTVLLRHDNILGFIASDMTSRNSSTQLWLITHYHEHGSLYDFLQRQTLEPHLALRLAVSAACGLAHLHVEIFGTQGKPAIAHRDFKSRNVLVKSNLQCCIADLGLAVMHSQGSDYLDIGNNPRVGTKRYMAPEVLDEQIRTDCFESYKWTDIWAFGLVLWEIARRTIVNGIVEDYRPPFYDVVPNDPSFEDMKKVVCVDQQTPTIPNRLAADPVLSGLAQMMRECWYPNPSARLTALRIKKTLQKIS
Chain of ALK5 (aa162-503) (P36897 162-503): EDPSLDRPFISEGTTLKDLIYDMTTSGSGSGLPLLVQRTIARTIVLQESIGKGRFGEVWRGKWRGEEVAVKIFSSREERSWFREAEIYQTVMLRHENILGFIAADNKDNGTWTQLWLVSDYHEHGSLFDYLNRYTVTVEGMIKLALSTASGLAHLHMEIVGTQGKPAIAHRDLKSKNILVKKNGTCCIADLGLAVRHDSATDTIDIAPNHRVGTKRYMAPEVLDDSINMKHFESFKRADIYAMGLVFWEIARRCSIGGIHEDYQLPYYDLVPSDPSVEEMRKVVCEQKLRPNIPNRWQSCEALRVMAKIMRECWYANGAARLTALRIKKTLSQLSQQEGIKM

Usually IC50 stands for the point on the concentration scale where inhibition reaches its midpoint. As for `CC(C)N1CCC(c2ccc(-c3cnc(N)c(C(=O)N[C@H]4CC[C@H](O)CC4)c3)cc2)C1` (stereo partly drawn) [Example 12, 2-amino-N-((1r,4r)-4-hydroxycyclohexyl)-5-(4-(1-isopropylpyrrolidin-3-yl)phenyl)nicotinamide], the IC50 at ALK1 (aa166-493) is 160 nM.

`CC#CCN1C[C@H]2C[C@@]2(c2ccc(-c3cnc(N)c(C(=O)N[C@H]4CC[C@H](O)CC4)c3)cc2)C1` [Example 60, 2-amino-5-(4-((1R,5S)-3-(but-2-yn-1-yl)-3-azabicyclo[3.1.0]hexan-1-yl)phenyl)-N-((1r,4R)-4-hydroxycyclohexyl)nicotinamide]: the IC50 stood at 11 nM in experiment [1]; 170 nM at ALK1 (aa166-493); 6300 nM at ALK6 (aa168-495); 84 nM in experiment [2]; 6300 nM on ALK5 (aa162-503); 990 nM against ALK3 (aa198-525). Further, the IC50 in experiment [3] worked out at 42 nM.

Consider `CC(C)N1C[C@H]2C[C@@]2(c2ccc(-c3cnc(N)c(C(=O)NC45CC(CO)(C4)C5)c3)cc2)C1` [Example 36, 2-amino-N-(3-(hydroxymethyl)bicyclo[1.1.1]pentan-1-yl)-5-(4-((1R,5S)-3-isopropyl-3-azabicyclo[3.1.0]hexan-1-yl)phenyl)nicotinamide], for which the IC50 stood at 16 nM in experiment [1]; 295 nM at ALK1 (aa166-493); 7200 nM at ALK6 (aa168-495); 43 nM in experiment [2]; 10000 nM on ALK5 (aa162-503); 1450 nM against ALK3 (aa198-525). The IC50 in experiment [3] stood at 23 nM.

With `C#CCN1C[C@@H]2C[C@]2(c2ccc(-c3cnc(N)c(C(=O)N[C@H]4CC[C@H](O)CC4)c3)cc2)C1` [Example 53, 2-amino-N-((1r,4S)-4-hydroxycyclohexyl)-5-(4-((1S,5R)-3-(prop-2-yn-1-yl)-3-azabicyclo[3.1.0]hexan-1-yl)phenyl)nicotinamide], the IC50 in experiment [1] came to 13 nM; on ALK1 (aa166-493), 190 nM; on ALK6 (aa168-495), 2500 nM; in experiment [2], 50 nM; at ALK5 (aa162-503) it was 2000 nM; on ALK3 (aa198-525), 1200 nM. Moreover, the IC50 in experiment [3] turned out to be 32 nM.

For `C[C@H](c1ccc(-c2cnc(N)c(C(=O)NC34CC5CC(CC(O)(C5)C3)C4)c2)cc1)N1CC2(COC2)C1` [Example 68, 5-(4-((R)-1-(2-oxa-6-azaspiro[3.3]heptan-6-yl)ethyl)phenyl)-2-amino-N-((1r,3R)-3-hydroxyadamantan-1-yl)nicotinamide], the IC50 in experiment [1] stood at 34 nM; at ALK1 (aa166-493) it was 2500 nM; on ALK6 (aa168-495) it was 10000 nM; in experiment [2] it was 950 nM; at ALK5 (aa162-503), 10000 nM; against ALK3 (aa198-525), 8000 nM. Also, the IC50 in experiment [3] was found to be 49 nM.

With `C[C@@H]1CCCN1Cc1ccc(-c2cnc(N)c(C(=O)N[C@H]3CC[C@](C)(O)CC3)c2)c(Cl)c1` [Example 81, 2-amino-5-(2-chloro-4-(((R)-2-methylpyrrolidin-1-yl)methyl)phenyl)-N-((1r,4R)-4-hydroxy-4-methylcyclohexyl)nicotinamide], the IC50 in experiment [1] stood at 150 nM; on ALK1 (aa166-493), 3000 nM; at ALK6 (aa168-495), 10000 nM; in experiment [2] it was 1250 nM; at ALK5 (aa162-503), 10000 nM; on ALK3 (aa198-525), 15100 nM. Further, in experiment [3], the IC50 amounted to 110 nM.

On to `CC(C)N1CCN(c2ccc(-c3cnc(N)c(C(=O)N[C@H]4CC[C@H](O)CC4)c3)c(F)c2)CC1` [Example 8, 2-amino-5-(2-fluoro-4-(4-isopropylpiperazin-1-yl)phenyl)-N-((1r,4r)-4-hydroxycyclohexyl)nicotinamide], for which the IC50 stood at 13 nM in experiment [1]; 220 nM at ALK1 (aa166-493); 5000 nM on ALK6 (aa168-495); 69 nM in experiment [2]; 4000 nM at ALK5 (aa162-503); 1900 nM against ALK3 (aa198-525). Moreover, in experiment [3], the IC50 came to 12 nM.

Consider `Nc1ncc(-c2ccc(N3CCNCC3)cc2F)cc1C(=O)N[C@H]1CC[C@H](O)CC1` [Example 29, 2-amino-5-(2-fluoro-4-(piperazin-1-yl)phenyl)-N-((1r,4r)-4-hydroxycyclohexyl)nicotinamide], for which the IC50 came to 22 nM in experiment [1]; 280 nM on ALK1 (aa166-493); 4000 nM on ALK6 (aa168-495); 685 nM in experiment [2]; 4000 nM at ALK5 (aa162-503); 2500 nM against ALK3 (aa198-525). For the same compound, in experiment [3], the IC50 came to 20 nM.

`C[C@]1(O)CC[C@H](NC(=O)c2cc(-c3ccc([C@]45C[C@H]4CN(C4CCOCC4)C5)cc3)cnc2N)CC1` [Example 62]: the IC50 in experiment [2] amounted to 134 nM.

In the case of `C[C@@H]1CCCN1Cc1ccc(-c2cnc(N)c(C(=O)N[C@H]3CC[C@](C)(O)CC3)c2)cc1` [Example 72, 2-amino-N-((1r,4R)-4-hydroxy-4-methylcyclohexyl)-5-(4-(((R)-2-methylpyrrolidin-1-yl)methyl)phenyl)nicotinamide], at ALK1 (aa166-493), the IC50 came to 2950 nM.

Consider `Nc1ncc(-c2ccc([C@]34C[C@H]3CN(C3CCOCC3)C4)cc2)cc1C(=O)N[C@H]1CC[C@H](O)CC1` [Example 33], for which the half-inhibitory concentration (IC50) worked out at 10 nM in experiment [1]; 220 nM at ALK1 (aa166-493); 2000 nM at ALK6 (aa168-495); 26 nM in experiment [2]; 20 nM in experiment [3].

For the compound `Nc1ncc(-c2ccc([C@@]34C[C@@H]3CN(C3CCOCC3)C4)cc2)cc1C(=O)N[C@H]1CC[C@H](O)CC1` [Example 19, 2-amino-N-((1r,4R)-4-hydroxycyclohexyl)-5-(4-((1R,5S)-3-(tetrahydro-2H-pyran-4-yl)-3-azabicyclo[3.1.0]hexan-1-yl)phenyl)nicotinamide], the IC50 worked out at 12 nM in experiment [1], 105 nM on ALK1 (aa166-493), 2250 nM on ALK6 (aa168-495) and 21 nM in experiment [2].

Take `Nc1ncc(-c2ccc([C@]34C[C@H]3CN(C3CCC(F)(F)CC3)C4)cc2)cc1C(=O)N[C@H]1CC[C@H](O)CC1` [Example 27, 2-amino-5-(4-((1S,5R)-3-(4,4-difluorocyclohexyl)-3-azabicyclo[3.1.0]hexan-1-yl)phenyl)-N-((1r,4S)-4-hydroxycyclohexyl)nicotinamide]: the IC50 in experiment [1] was determined as 10 nM; at ALK1 (aa166-493), 135 nM; at ALK6 (aa168-495) it was 1600 nM; in experiment [2], 59 nM; in experiment [3], 18 nM.

For the compound `Nc1ncc(-c2ccc([C@@]34C[C@@H]3CN(CCF)C4)cc2)cc1C(=O)NC12CCC(O)(CC1)CC2` [Example 57, 2-amino-5-(4-((1R,5S)-3-(2-fluoroethyl)-3-azabicyclo[3.1.0]hexan-1-yl)phenyl)-N-(4-hydroxybicyclo[2.2.2]octan-1-yl)nicotinamide], in experiment [2], the IC50 is 144 nM.

Regarding `Nc1ncc(-c2ccc([C@@]34C[C@@H]3CN(C3CCOCC3)C4)cc2)cc1C(=O)N[C@H]1CC[C@@H](O)CC1` [Example 22, 2-amino-N-((1s,4S)-4-hydroxycyclohexyl)-5-(4-((1R,5S)-3-(tetrahydro-2H-pyran-4-yl)-3-azabicyclo[3.1.0]hexan-1-yl)phenyl)nicotinamide], the IC50 in experiment [1] was 9 nM; at ALK1 (aa166-493), 250 nM; at ALK6 (aa168-495), 3200 nM; in experiment [2], 41 nM; in experiment [3], 16 nM.

In the case of `Nc1ncc(-c2ccc([C@@]34C[C@@H]3CN(C3CCC(F)(F)CC3)C4)cc2)cc1C(=O)N[C@H]1CC[C@H](O)CC1` [Example 25, 2-amino-5-(4-((1R,5S)-3-(4,4-difluorocyclohexyl)-3-azabicyclo[3.1.0]hexan-1-yl)phenyl)-N-((1r,4R)-4-hydroxycyclohexyl)nicotinamide], the IC50 in experiment [1] stood at 9 nM; on ALK6 (aa168-495), 3000 nM; in experiment [2], 35 nM; in experiment [3] it was 18 nM.

Consider `C[C@@H]1CCCN1Cc1ccc(-c2cnc(N)c(C(=O)N[C@H]3CC[C@](C)(O)CC3)c2)cc1F` [Example 46, 2-amino-5-(3-fluoro-4-(((R)-2-methylpyrrolidin-1-yl)methyl)phenyl)-N-((1r,4R)-4-hydroxy-4-methylcyclohexyl)nicotinamide], for which the half-maximal inhibitory concentration (IC50) in experiment [1] is 24 nM; at ALK6 (aa168-495), 10000 nM; at ALK5 (aa162-503) it was 10000 nM; against ALK3 (aa198-525) it was 14600 nM; in experiment [3], 25 nM.

Take `Nc1ncc(-c2ccc([C@]34C[C@H]3CN(CCF)C4)cc2)cc1C(=O)NC12CCC(O)(CC1)CC2` [Example 73, 2-amino-5-(4-((1S,5R)-3-(2-fluoroethyl)-3-azabicyclo[3.1.0]hexan-1-yl)phenyl)-N-(4-hydroxybicyclo[2.2.2]octan-1-yl)nicotinamide]: the half-maximal inhibitory concentration (IC50) in experiment [2] stood at 130 nM.

With `Nc1ncc(-c2ccc(C3CCNC3)cc2)cc1C(=O)N[C@H]1CC[C@H](O)CC1` (stereo partly drawn) [Example 18, 2-amino-N-((1r,4r)-4-hydroxycyclohexyl)-5-(4-(pyrrolidin-3-yl)phenyl)nicotinamide], the half-inhibitory concentration (IC50) at ALK1 (aa166-493) worked out at 200 nM.

Regarding `C[C@]1(O)CC[C@H](NC(=O)c2cc(-c3ccc([C@@]45C[C@@H]4CN(C4CCOCC4)C5)cc3)cnc2N)CC1` [Example 14, 2-amino-N-((1r,4R)-4-hydroxy-4-methylcyclohexyl)-5-(4-((1R,5S)-3-(tetrahydro-2H-pyran-4-yl)-3-azabicyclo[3.1.0]hexan-1-yl)phenyl)nicotinamide], in experiment [2], the IC50 was 205 nM.
